How the values were obtained:
in vivo [1] = details: dog
Protocol: (§1) Suspensions were stirred continuously prior to dose.
A total of 6 male beagle dogs were used (n=3). 6 male dogs assigned to the study were divided into 2 periods with 6 dogs per period and two dosing cycles separated by a 7-day washout period. The diet was provided ad libitum throughout the in-life portion of the study, except for the fasting prior to dosing through 4 hours post dose. Drinking water was available daily ad libitum to all animals. Formulated PP-001 salts were administered to male beagle dogs by oral administration at 4 mg/kg with dosed volume at 2 mL/kg.
Plasma samples were collected via the jugular vein cannulation into EDTA-K3 tubes at 0.25, 0.5, 1, 2, 4, 8, and 24 hours post-dose administration. For analytical batch of single oral administration, plasma concentrations of salts of PP-001 were determined using LC-MS/MS with a lower limit of quantitation of 10 ng/mL.
(§2) The pharmacokinetic parameters of PP-001 salts were determined by non-compartmental analysis using WinNonlin Version 8.0 (Pharsight, Mountain View, CA). The area under the curve from the time of dosing to the last measurable concentration, AUC0-t, was calculated by the linear trapezoidal rule. The area under the concentration-time curve extrapolated to infinity, AUCinf, was calculated using a regression of the natural logarithm of the concentration values versus sampling time of the terminal slope (Lambda Z, k). This value is also used to calculate half-life (T1/2) as follows:
(§3) The bioavailability was calculated as follows:
(§4) [formula] • wherein PO is an oral administration and IV is an intravenous injection.

[2] = Kinetic solubility of PP-001 salts in FaSSIF (HPLC); type: physicochemical
Protocol: Approximately 8 mg (calculated as freebase) of each salt was weighed out into each glass vial and then 4 ml of FaSSIF was added (target concentration was 2 mg/mL). The sample was kept stirring on a magnetic stirrer at a speed of I 00 RPM under 25° C. Then at the time points of initial, 0.5 hr, 1 hr, 2 hrs and 24 hrs, 0.5 mL of sample solution was transferred into 1.5 mL centrifugation tube and centrifuged at 12,000 RPM for 10 min. The supernatant was diluted by 50% ACN suitable and analyzed by HPLC.
An HPLC method of testing solubility was performed as follows in Table A: […]

in vivo [3] = details: rat
Protocol: as §1
A total of 27 male SD rats were used (n=3). 27 male SD rats assigned to the study were divided into 9 groups and a single type of formulated PP-001 salt was orally administered to each group of rats at dose level of 4 mg/kg (2 mL/kg dose volume). The diet was provided ad libitum throughout the in-life portion of the study, except for the fasting prior to dosing through 4 hours post dose. Drinking water was available daily ad libitum to all animals.
Plasma samples were collected via the jugular vein cannulation into EDTA-K3 tubes at 0.25, 0.5, 1, 2, 4, 8, and 24 hours post-dose administration. For analytical batch of single oral administration, plasma concentrations of salts of PP-001 were determined using LC-MS/MS with a lower limit of quantitation of 1 ng/mL.
as §2, §3, §4

[4] = Thermodynamic (equilibrium) solubility of PP-001 salts in FaSSIF; type: physicochemical; details: 3 mL FaSSIF, 37° C.; for Appearance after stirring for 24 hours: saturated; for Thermodynamic solubility: saturated (target 10 mg/mL), time point 2 hrs, pH 6.4 to 6.5
Protocol: As the solid was completely dissolved, add more sample to keep it saturated. […] Then at the time point 2 hrs, 0.5 mL of sample solution was transferred into 1.5 mL centrifugation tube and centrifuged at 12,000 RPM for 10 min. The supernatant was diluted by 50% ACN suitable and analyzed by HPLC. The pH was tested after 24 hours.

[5] = 4 mL FaSSIF, 25° C., target 2 mg/mL

For [Ca] [Calcium], the “Increase in oral BA vs free acid in dogs” value (in vivo [1]) was 3.0, the “Increase in bioavailability in dogs” value (in vivo [1]; po) was greater than 3 fold and the “AUC0-∞” value (in vivo [1]; po, 4 mg/kg) was 133409 ng·h/mL. It also gave an AUCExtr (in vivo [1]; po, 4 mg/kg) of 1.16%, an AUCinf/D (in vivo [1]; po, 4 mg/kg) of 33352 kg·ng·h/mL/mg and an AUClast (in vivo [1]; po, 4 mg/kg) of 131819 ng·h/mL. The Cmax (in vivo [1]; po, 4 mg/kg) was 22467 ng/mL, the “F, bioavailability (BA) in dogs” value (in vivo [1]; po, 4 mg/kg) was 68.1% and the “MRT0-∞” value (in vivo [1]; po, 4 mg/kg) was 4.38 h. For the same compound, the T1/2 (in vivo [1]; po, 4 mg/kg) was 3.76 h, the Tmax (in vivo [1]; po, 4 mg/kg) was 1.67 h and the “Appearance after stirring for 24 hours” value [2, 5] was “suspension”. The “Final pH” value [2, 5] was 6.51, the “Solubility at different time points, 0.5 h” value [2, 5] was 750 µg/mL and the “Solubility at different time points, 1 h” value [2, 5] was 740 µg/mL. The “Solubility at different time points, 2 h” value [2, 5] was 710 µg/mL, the “Solubility at different time points, 24 h” value ([2]; 4 mL FaSSIF, 25° C., target 2 mg/mL, listed as Ca) was 700 µg/mL and the “Solubility at different time points, 24 h” value ([2]; 4 mL FaSSIF, 25° C., target 2 mg/mL, listed as Ca cation) was 700 µg/mL. The “Solubility at different time points, Initial” value [2, 5] was 340 µg/mL, the “Solubility compared to PP-001 free acid” value ([2]; FaSSIF, comparison from Table 6) was “reduced solubility compared to PP-001 free acid” and the “Increase in oral BA vs free acid in rats” value (in vivo [3]; in vivo, po) was 2.0. For the same compound, the “AUC0-∞” value (in vivo [3]; in vivo, po, 4 mg/kg) was 27157 ng·h/mL, the AUCExtr (in vivo [3]; in vivo, po, 4 mg/kg) was 1.03% and the AUCinf/D (in vivo [3]; in vivo, po, 4 mg/kg) was 6789 kg·ng·h/mL/mg. The AUClast (in vivo [3]; in vivo, po, 4 mg/kg) was 26827 ng·h/mL, the Cmax (in vivo [3]; in vivo, po, 4 mg/kg) was 3280 ng/mL and the “F, bioavailability (BA) in rats” value (in vivo [3]; in vivo, po, 4 mg/kg) was 15.6%. The “MRT0-∞” value (in vivo [3]; in vivo, po, 4 mg/kg) was 5.55 h, the Tmax (in vivo [3]; in vivo, po, 4 mg/kg) was 4.00 h and the T1/2 (in vivo [3]; in vivo, po, 4 mg/kg, pH 6.8) was 3.40 h.

For NCCCC[C@H](N)C(=O)O [Lysine], the “Solubility at different time points, 0.5 h” value [2, 5] was 2040 µg/mL, the “Solubility at different time points, 1 h” value [2, 5] was 2060 µg/mL and the “Solubility at different time points, 2 h” value [2, 5] was 2020 µg/mL. The “Solubility at different time points, 24 h” value [2, 5] was 2090 µg/mL, the “Solubility at different time points, Initial” value [2, 5] was 1370 µg/mL and the “AUC0-∞” value (in vivo [3]; PO 4 mg/kg, mean n=3) was 18430 ng·h/mL. For the same compound, the AUCExtr (in vivo [3]; PO 4 mg/kg, mean n=3) was 0.388%, the AUCinf/D (in vivo [3]; PO 4 mg/kg, mean n=3) was 4607 kg·ng·h/mL/mg and the AUClast (in vivo [3]; PO 4 mg/kg, mean n=3) was 18361 ng·h/mL. The Cmax (in vivo [3]; PO 4 mg/kg, mean n=3) was 2663 ng/mL, the “F, bioavailability (BA) in rats” value (in vivo [3]; PO 4 mg/kg, mean n=3) was 10.6% and the “MRT0-∞” value (in vivo [3]; PO 4 mg/kg, mean n=3) was 4.97 h. The Tmax (in vivo [3]; PO 4 mg/kg, mean n=3) was 4.00 h, the T1/2 (in vivo [3]; PO 4 mg/kg, suspension in pH 6.8 phosphate buffer, mean n=3) was 2.85 h and the “Increase in oral BA vs free acid in rats” value (in vivo [3]; oral, ratio to PP-001 free acid) was 1.4. For the same compound, the “Appearance after stirring for 24 hours” value [4] was “Suspension” and the Thermodynamic solubility [4] was 4650 µg/mL.

For [Mg] [Magnesium], the “Appearance after stirring for 24 hours” value [2, 5] was “suspension”, the “Solubility at different time points, 0.5 h” value [2, 5] was 1520 µg/mL and the “Solubility at different time points, 1 h” value [2, 5] was 1510 µg/mL. The “Solubility at different time points, 2 h” value [2, 5] was 1440 µg/mL, the “Solubility at different time points, 24 h” value ([2]; 4 mL FaSSIF, 25° C., target 2 mg/mL, listed as Mg) was 1010 µg/mL and the “Solubility at different time points, 24 h” value ([2]; 4 mL FaSSIF, 25° C., target 2 mg/mL, listed as Mg cation) was 1010 µg/mL. For the same compound, the “Solubility at different time points, Initial” value [2, 5] was 330 µg/mL, the “Increase in oral BA vs free acid in rats” value (in vivo [3]; in vivo, po) was 1.7 and the “AUC0-∞” value (in vivo [3]; in vivo, po, 4 mg/kg) was 23029 ng·h/mL. It also gave an AUCExtr (in vivo [3]; in vivo, po, 4 mg/kg) of 0.510%, an AUCinf/D (in vivo [3]; in vivo, po, 4 mg/kg) of 5757 kg·ng·h/mL/mg and an AUClast (in vivo [3]; in vivo, po, 4 mg/kg) of 22909 ng·h/mL. For the same compound, the Cmax (in vivo [3]; in vivo, po, 4 mg/kg) was 3163 ng/mL, the “F, bioavailability (BA) in rats” value (in vivo [3]; in vivo, po, 4 mg/kg) was 13.2% and the “MRT0-∞” value (in vivo [3]; in vivo, po, 4 mg/kg) was 4.87 h. It also gave a Tmax (in vivo [3]; in vivo, po, 4 mg/kg) of 3.33 h and a T1/2 (in vivo [3]; in vivo, po, 4 mg/kg, pH 6.8) of 3.01 h.

In the case of CNC[C@H](O)[C@@H](O)[C@H](O)[C@H](O)CO [Meglumine], the “Solubility at different time points, 0.5 h” value [2, 5] is reported as 2010 µg/mL, the “Solubility at different time points, 1 h” value [2, 5] is reported as 1980 µg/mL and the “Solubility at different time points, 2 h” value [2, 5] is reported as 2000 µg/mL. For the same compound, the “Solubility at different time points, 24 h” value [2, 5] was 1960 µg/mL, the “Solubility at different time points, Initial” value [2, 5] was 1320 µg/mL and the “Increase in oral BA vs free acid in rats” value (in vivo [3]; in vivo, po) was 1.3. The “AUC0-∞” value (in vivo [3]; in vivo, po, 4 mg/kg) was 17083 ng·h/mL, the AUCExtr (in vivo [3]; in vivo, po, 4 mg/kg) was 0.488% and the AUCinf/D (in vivo [3]; in vivo, po, 4 mg/kg) was 4271 kg·ng·h/mL/mg. The AUClast (in vivo [3]; in vivo, po, 4 mg/kg) was 16995 ng·h/mL, the Cmax (in vivo [3]; in vivo, po, 4 mg/kg) was 2217 ng/mL and the “MRT0-∞” value (in vivo [3]; in vivo, po, 4 mg/kg) was 4.83 h. It also gave a Tmax (in vivo [3]; in vivo, po, 4 mg/kg) of 3.00 h, a T1/2 (in vivo [3]; in vivo, po, 4 mg/kg, pH 6.8) of 3.02 h and a Thermodynamic solubility [4] of 5690 µg/mL.

In the case of Benzathine, the “Increase in oral BA vs free acid in rats” value (in vivo [3]; in vivo, po) is reported as 0.7, the “AUC0-∞” value (in vivo [3]; in vivo, po, 4 mg/kg) is reported as 9593 ng·h/mL and the AUCExtr (in vivo [3]; in vivo, po, 4 mg/kg) is reported as 0.298%. The AUCinf/D (in vivo [3]; in vivo, po, 4 mg/kg) was 2398 kg·ng·h/mL/mg, the AUClast (in vivo [3]; in vivo, po, 4 mg/kg) was 9559 ng·h/mL and the Cmax (in vivo [3]; in vivo, po, 4 mg/kg) was 1495 ng/mL. For the same compound, the “F, bioavailability (BA) in rats” value (in vivo [3]; in vivo, po, 4 mg/kg) was 5.5%, the “MRT0-∞” value (in vivo [3]; in vivo, po, 4 mg/kg) was 4.81 h and the Tmax (in vivo [3]; in vivo, po, 4 mg/kg) was 3.33 h. For the same compound, the T1/2 (in vivo [3]; in vivo, po, 4 mg/kg, pH 6.8) was 2.70 h, the “Final pH” value ([4]; pH tested after 24 hours) was 6.43 and the “Appearance after stirring for 24 hours” value [4] was “Suspension”. It also gave a Thermodynamic solubility [4] of 30 µg/mL.

For Zinc, the “Increase in oral BA vs free acid in rats” value (in vivo [3]; in vivo, po) was 1.3, the “AUC0-∞” value (in vivo [3]; in vivo, po, 4 mg/kg) was 17122 ng·h/mL and the AUCExtr (in vivo [3]; in vivo, po, 4 mg/kg) was 0.471%. It also gave an AUCinf/D (in vivo [3]; in vivo, po, 4 mg/kg) of 4281 kg·ng·h/mL/mg, an AUClast (in vivo [3]; in vivo, po, 4 mg/kg) of 17033 ng·h/mL and a Cmax (in vivo [3]; in vivo, po, 4 mg/kg) of 2490 ng/mL. The “F, bioavailability (BA) in rats” value (in vivo [3]; in vivo, po, 4 mg/kg) was 9.82%, the “MRT0-∞” value (in vivo [3]; in vivo, po, 4 mg/kg) was 5.33 h and the Tmax (in vivo [3]; in vivo, po, 4 mg/kg) was 4.00 h. For the same compound, the T1/2 (in vivo [3]; in vivo, po, 4 mg/kg, pH 6.8) was 2.89 h.

From patent US20260209200A1, “SALTS OF A DIHYDROOROTATE DEHYDROGENASE (DHOD) INHIBITOR” (priority 2022, published 2026)
